In article PMC10095950, “Development of Cell Permeable NanoBRET Probes for the Measurement of PLK1 Target Engagement in Live Cells” (Molecules, 2023):

Columns and labels:
Format in all cases: cell-based
PLK2 = target: T1, PLK2 (Homo sapiens, UniProt Q9NYY3); conditions: live cell, K10 tracer
T1 construct: host or cells: HEK293

WEE1 = target: T2, WEE1 (Homo sapiens, UniProt P30291); conditions: live cell, K10 tracer
T2 construct: host or cells: HEK293

WEE2 = target: T3, WEE2 (Homo sapiens, UniProt P0C1S8); conditions: live cell, K10 tracer
T3 construct: host or cells: HEK293

MAP3K4 = target: T4, MAP3K4 (Homo sapiens, UniProt Q9Y6R4); conditions: live cell, K10 tracer
T4 construct: host or cells: HEK293

human PLK1 (NLuc-PLK1) = target: T5, human PLK1 (NLuc-PLK1) (Homo sapiens, UniProt P53350); assay: PLK1 NanoBRET target engagement assay (NLuc-PLK1, N-terminal fusion) in live HEK293 cells; conditions: probe 11; at least three technical replicates; read-out: PLK1 NanoBRET IC50 (dose response, Figure 3a)
T5 construct: plasmid DNAs encoding N- and C-terminal fusions of full-length PLK1 with NLuc; host or cells: HEK293
Procedure: HEK293 cells (ATCC) were cultured in DMEM (Gibco) + 10% FBS (Seradigm) with incubation in a humidified 37 °C/5% CO2 incubator. N- or C-terminal NLuc/PLK fusions were encoded in pFN31K expression vectors (Promega), including flexible Gly-Ser-Ser-Gly linkers between NLuc and ORFs corresponding to UniProt isoform 1 (PLK1: P53350-1, PLK2: Q9NYY3-1, and PLK3: Q9H4B4-1). Carrier DNA was encoded in pGEM-3Z vectors (Promega). For cellular BRET target engagement experiments, HEK293 cells were transfected with NLuc/PLK fusion constructs using FuGENE HD (Promega) according to the manufacturer’s protocol. […] One part (vol) of FuGENE HD complexes thus formed was combined with 20 parts (vol) of HEK293 cells suspended at a density of 2 × 10^5 per mL, followed by incubation in a humidified 37 °C/5% CO2 incubator for 20 hr.
To test BRET probes 10 and 11 against PLK1, HEK293 adherent cells were incubated with either NLuc fused to the N-terminus of PLK1 (NLuc-PLK1) or the C-terminus of PLK1 (PLK1-NLuc) using 1 µM of the BRET probe, and mBRET units were measured. […] NLuc-PLK2 and NLuc-PLK3 were tested with both probes 10 and 11 using the same protocol.
To estimate the half-maximal effective concentration (EC50) of probe 11 to PLK1 in cells, adherent HEK293 cells in a 96-well plate expressing the NLuc-PLK1 fusion protein were mixed with an increasing concentration of BRET probe 11. The resulting BRET ratio was fitted to the sigmoidal 4-parameter dose–response curve using Prism 9.0 (GraphPad, Boston MA, USA).

GAK = target: T6, GAK (Homo sapiens, UniProt O14976); conditions: live cell, K10 tracer
T6 construct: host or cells: HEK293
T6 sequence (O14976 1-1311): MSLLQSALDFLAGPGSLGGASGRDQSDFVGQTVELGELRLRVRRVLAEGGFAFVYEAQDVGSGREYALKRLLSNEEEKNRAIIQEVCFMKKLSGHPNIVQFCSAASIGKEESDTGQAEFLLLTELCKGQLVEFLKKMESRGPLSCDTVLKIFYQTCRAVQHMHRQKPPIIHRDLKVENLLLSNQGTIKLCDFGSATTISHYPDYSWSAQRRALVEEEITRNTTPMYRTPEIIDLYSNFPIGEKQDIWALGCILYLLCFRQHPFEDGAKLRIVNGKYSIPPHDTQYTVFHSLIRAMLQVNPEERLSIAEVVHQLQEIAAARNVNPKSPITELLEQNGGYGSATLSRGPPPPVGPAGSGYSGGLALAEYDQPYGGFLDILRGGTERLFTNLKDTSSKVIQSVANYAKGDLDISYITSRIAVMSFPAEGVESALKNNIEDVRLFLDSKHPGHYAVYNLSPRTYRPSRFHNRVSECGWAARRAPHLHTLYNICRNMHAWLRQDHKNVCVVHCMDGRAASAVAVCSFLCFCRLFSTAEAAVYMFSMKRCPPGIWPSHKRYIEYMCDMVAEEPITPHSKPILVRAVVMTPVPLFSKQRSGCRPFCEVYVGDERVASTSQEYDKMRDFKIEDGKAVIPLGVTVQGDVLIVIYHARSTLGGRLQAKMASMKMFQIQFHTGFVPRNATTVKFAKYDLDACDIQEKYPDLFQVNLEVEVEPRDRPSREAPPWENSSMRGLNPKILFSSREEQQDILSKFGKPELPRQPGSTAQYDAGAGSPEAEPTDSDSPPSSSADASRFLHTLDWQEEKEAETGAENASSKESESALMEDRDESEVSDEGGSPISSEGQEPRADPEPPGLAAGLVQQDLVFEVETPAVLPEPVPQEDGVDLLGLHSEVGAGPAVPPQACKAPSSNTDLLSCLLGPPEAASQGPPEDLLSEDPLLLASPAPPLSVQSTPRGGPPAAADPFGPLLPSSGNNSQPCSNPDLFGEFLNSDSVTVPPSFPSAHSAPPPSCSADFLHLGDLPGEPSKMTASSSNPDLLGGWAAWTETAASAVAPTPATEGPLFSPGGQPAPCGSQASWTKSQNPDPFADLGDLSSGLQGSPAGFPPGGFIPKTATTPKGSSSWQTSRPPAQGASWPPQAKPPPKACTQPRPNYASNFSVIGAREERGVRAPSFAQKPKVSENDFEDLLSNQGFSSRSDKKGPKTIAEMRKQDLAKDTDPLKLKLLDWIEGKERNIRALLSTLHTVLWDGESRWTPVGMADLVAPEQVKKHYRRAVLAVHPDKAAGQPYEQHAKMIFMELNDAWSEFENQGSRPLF

PLK3 = target: T7, PLK3 (Homo sapiens, UniProt Q9H4B4); conditions: live cell, K10 tracer
T7 construct: host or cells: HEK293

TNNI3K = target: T8, TNNI3K (Homo sapiens, UniProt Q59H18); conditions: live cell, K10 tracer
T8 construct: host or cells: HEK293
T8 sequence (Q59H18 1-835): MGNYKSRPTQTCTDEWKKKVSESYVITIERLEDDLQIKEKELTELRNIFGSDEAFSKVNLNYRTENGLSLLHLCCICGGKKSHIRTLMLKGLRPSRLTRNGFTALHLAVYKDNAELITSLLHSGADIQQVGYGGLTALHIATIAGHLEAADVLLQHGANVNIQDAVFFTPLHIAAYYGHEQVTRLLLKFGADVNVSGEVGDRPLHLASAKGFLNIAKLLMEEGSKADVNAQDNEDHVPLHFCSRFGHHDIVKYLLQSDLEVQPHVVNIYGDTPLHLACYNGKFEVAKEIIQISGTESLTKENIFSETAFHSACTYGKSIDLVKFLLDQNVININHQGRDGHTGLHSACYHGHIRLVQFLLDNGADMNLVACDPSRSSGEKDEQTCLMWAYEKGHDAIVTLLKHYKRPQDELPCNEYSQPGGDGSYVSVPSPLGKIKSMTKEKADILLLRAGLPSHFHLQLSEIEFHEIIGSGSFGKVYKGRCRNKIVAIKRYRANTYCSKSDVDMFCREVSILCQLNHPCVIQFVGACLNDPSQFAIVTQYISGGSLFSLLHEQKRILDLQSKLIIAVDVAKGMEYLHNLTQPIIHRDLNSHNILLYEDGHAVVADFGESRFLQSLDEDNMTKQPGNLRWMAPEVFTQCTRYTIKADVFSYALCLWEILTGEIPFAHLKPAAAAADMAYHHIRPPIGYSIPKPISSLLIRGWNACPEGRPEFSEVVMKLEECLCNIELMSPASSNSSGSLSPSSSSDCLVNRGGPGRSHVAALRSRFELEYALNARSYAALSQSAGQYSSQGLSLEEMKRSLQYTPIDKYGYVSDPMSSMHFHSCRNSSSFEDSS

T3 sequence (P0C1S8 whole entry): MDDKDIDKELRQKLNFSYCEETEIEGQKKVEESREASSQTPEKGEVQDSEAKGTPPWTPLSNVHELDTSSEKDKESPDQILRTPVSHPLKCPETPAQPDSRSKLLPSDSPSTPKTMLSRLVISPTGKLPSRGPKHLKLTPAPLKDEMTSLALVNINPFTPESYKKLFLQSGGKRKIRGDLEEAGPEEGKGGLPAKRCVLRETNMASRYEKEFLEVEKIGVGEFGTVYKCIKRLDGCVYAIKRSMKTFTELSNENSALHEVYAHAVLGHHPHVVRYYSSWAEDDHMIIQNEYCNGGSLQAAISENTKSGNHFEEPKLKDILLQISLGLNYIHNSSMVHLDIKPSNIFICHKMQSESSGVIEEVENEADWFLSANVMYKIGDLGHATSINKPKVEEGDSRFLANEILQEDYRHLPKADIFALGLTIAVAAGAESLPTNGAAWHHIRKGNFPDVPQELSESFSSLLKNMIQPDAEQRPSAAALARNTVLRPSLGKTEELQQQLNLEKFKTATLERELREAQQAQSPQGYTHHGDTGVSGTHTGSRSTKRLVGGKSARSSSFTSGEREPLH
T7 sequence (Q9H4B4 whole entry): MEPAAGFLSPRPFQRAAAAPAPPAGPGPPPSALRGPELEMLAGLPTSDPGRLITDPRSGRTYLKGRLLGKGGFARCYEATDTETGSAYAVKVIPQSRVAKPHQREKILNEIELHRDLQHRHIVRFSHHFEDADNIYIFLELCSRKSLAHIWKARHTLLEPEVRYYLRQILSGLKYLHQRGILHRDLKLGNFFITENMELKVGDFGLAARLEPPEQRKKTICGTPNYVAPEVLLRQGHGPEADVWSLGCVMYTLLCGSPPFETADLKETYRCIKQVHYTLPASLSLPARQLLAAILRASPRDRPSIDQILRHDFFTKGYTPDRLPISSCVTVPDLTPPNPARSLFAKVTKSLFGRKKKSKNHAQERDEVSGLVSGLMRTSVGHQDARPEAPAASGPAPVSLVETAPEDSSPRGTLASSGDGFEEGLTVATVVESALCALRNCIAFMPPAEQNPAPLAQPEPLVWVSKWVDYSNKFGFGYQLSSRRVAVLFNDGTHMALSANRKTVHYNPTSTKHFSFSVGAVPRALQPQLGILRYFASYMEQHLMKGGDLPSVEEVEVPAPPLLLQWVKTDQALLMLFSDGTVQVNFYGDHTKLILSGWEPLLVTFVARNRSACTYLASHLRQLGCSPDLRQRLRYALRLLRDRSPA
T4 sequence (Q9Y6R4 whole entry): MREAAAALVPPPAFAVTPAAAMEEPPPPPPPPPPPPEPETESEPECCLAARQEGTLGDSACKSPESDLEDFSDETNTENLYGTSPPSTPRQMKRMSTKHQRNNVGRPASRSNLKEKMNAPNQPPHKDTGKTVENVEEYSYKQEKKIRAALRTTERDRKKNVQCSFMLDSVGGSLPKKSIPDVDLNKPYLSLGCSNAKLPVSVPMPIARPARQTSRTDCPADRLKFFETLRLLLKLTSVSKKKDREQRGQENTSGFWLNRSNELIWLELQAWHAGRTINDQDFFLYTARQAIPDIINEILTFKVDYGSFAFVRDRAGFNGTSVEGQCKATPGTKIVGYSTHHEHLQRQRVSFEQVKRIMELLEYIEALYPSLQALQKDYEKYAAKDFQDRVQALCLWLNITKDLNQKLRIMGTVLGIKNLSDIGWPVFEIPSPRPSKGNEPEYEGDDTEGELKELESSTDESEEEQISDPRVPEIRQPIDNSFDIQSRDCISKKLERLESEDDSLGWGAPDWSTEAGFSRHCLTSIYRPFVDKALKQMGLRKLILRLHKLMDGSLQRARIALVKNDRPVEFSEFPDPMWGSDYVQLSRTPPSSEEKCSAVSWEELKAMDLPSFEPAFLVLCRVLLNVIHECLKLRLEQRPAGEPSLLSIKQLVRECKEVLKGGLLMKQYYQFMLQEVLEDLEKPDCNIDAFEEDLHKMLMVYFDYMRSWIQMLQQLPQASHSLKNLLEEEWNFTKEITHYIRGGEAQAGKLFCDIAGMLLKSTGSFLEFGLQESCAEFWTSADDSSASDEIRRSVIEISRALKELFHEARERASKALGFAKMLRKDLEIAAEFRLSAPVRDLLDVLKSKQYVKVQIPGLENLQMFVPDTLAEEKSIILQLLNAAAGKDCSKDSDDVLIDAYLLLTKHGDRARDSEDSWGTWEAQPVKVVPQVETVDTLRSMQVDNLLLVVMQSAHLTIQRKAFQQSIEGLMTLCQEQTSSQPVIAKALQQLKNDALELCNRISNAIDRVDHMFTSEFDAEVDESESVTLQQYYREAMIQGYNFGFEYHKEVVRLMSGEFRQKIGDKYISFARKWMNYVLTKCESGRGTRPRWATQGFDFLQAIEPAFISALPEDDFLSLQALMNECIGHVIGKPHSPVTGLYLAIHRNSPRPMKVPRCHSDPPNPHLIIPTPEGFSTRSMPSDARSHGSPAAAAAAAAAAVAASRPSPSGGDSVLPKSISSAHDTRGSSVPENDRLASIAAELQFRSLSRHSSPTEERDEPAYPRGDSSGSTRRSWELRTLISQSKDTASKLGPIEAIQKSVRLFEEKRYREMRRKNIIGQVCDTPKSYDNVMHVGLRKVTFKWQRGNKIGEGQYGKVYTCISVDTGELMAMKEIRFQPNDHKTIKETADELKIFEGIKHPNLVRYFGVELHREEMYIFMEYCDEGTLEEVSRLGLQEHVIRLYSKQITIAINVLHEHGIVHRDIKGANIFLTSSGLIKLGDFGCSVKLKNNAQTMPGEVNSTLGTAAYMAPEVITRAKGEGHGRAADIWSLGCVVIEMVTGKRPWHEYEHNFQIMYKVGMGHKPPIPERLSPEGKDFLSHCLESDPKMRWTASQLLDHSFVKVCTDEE
T2 sequence (P30291 whole entry): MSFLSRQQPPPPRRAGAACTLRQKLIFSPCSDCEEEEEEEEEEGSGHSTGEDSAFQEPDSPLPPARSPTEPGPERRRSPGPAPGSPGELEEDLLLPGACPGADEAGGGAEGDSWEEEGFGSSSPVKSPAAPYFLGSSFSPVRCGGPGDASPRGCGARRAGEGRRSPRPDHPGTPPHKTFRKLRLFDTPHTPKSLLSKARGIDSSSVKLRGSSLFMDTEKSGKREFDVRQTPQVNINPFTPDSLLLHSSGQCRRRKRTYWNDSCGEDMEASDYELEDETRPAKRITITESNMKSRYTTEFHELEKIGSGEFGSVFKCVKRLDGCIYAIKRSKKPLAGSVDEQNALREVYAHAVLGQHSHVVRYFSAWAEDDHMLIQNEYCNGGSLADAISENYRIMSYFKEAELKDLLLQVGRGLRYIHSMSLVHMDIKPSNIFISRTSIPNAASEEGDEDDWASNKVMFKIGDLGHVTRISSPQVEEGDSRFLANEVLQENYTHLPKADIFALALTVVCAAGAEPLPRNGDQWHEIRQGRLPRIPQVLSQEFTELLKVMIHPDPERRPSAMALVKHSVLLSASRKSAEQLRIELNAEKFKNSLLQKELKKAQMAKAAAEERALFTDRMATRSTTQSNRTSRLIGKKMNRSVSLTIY
T5 sequence (P53350 whole entry, the tested form may be a part): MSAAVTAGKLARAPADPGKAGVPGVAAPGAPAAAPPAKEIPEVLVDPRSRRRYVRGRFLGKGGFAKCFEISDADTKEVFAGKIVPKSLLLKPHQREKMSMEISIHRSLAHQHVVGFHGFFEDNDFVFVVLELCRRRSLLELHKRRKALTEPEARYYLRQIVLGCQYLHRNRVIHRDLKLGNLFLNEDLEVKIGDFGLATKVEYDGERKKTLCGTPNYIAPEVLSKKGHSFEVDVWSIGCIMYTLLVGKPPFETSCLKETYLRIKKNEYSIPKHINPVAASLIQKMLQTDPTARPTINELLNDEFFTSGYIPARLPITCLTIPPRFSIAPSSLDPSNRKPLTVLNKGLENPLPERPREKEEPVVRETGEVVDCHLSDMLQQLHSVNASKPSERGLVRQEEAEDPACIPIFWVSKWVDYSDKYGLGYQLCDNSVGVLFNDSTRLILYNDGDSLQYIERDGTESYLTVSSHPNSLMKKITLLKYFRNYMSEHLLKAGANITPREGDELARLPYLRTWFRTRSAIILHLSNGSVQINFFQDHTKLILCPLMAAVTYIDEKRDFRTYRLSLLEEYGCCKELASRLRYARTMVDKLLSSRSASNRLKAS
T1 sequence (Q9NYY3 whole entry): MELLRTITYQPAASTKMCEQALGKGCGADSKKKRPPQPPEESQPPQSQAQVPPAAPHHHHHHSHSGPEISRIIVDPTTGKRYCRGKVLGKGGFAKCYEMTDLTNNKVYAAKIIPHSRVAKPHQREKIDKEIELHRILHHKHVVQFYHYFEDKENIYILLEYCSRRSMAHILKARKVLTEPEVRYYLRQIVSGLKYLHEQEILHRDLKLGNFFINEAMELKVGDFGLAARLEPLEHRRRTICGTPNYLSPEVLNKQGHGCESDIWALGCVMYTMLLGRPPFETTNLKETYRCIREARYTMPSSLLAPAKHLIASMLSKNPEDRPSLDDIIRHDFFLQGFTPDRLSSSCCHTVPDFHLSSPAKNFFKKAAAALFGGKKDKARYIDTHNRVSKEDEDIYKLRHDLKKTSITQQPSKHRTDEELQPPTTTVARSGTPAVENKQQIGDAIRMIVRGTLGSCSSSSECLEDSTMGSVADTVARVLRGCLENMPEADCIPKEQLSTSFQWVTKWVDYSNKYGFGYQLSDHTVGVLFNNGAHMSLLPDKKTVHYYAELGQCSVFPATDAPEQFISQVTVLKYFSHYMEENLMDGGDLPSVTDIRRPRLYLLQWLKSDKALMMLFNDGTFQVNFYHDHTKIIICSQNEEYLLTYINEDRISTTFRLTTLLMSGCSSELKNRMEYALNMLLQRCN

receptor occupancy at 1 µM (PLK2): 95%
receptor occupancy at 1 µM (WEE1): 95%
receptor occupancy at 1 µM (WEE2): 59%
receptor occupancy at 1 µM (MAP3K4): 67%
IC50 (human PLK1 (NLuc-PLK1)): > 1000 nM
receptor occupancy at 1 µM (GAK): 63%
receptor occupancy at 1 µM (PLK3): 53%
receptor occupancy at 1 µM (TNNI3K): 70%
SMILES: C=CCn1c(=O)c2cnc(Nc3ccc(N4CCN(C)CC4)cc3)nc2n1-c1cccc(C(C)(C)O)n1 [adavosertib]
